Entries after “also recorded” stand apart in the source; their conditions may differ. Read-outs that look alike come from different tables or passages of the source.
Key:
acetylcholinesterase = acetylcholinesterase (Homo sapiens (Human), UniProt P22303); test: biochemical; format: biochemical; settings: for potency on acetylcholinesterase compared with positive control drug donepezil hydrochloride: in vitro, enzymology level
[1] = test system: learning and memory disorder of mice induced by scopolamine; test: Morris water maze test, senile dementia mice model induced by scopolamine; format: in vivo; settings: Table 6, scopolamine 1 mg/kg
[2] = modified Ellman method, read-out: IC50 (nM), inhibition activity on acetylcholinesterase
[3] = read-out: IC50 (nM), inhibition activity on acetylcholinesterase
[4] = IC50 (nM), inhibition activity on acetylcholinesterase, modified Ellman method

Chain of acetylcholinesterase (P22303 32-614, species assumed): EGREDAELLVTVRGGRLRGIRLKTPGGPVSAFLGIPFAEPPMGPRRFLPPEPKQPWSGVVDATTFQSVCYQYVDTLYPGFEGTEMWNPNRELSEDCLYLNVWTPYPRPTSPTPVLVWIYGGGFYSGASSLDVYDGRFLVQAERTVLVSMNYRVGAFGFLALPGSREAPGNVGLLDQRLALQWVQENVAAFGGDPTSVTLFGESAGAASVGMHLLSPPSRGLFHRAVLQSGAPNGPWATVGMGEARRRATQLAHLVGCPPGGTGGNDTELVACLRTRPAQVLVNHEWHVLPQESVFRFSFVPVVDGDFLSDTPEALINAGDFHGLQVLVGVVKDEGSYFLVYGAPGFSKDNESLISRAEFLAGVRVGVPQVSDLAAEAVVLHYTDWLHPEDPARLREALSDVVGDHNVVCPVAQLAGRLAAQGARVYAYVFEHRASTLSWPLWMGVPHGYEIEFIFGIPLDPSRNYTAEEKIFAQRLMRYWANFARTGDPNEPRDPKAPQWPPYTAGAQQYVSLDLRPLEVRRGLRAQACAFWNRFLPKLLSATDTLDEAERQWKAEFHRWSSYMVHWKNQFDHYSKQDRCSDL

CC1c2cc3c(cc2C(=O)N1CCC1CCN(Cc2ccccc2F)CC1)OCO3 (centres unmarked) [Compound I-10, 6-[2-[1-[(2-fluorophenyl)methyl]-4-piperidyl]ethyl]-5-methyl-5H-[1,3]dioxolo[4,5-f]isoindol-7-one]
potency on acetylcholinesterase compared with positive control drug donepezil hydrochloride (acetylcholinesterase): slightly lower potency than the positive control drug | IC50 (acetylcholinesterase; [2]): 239 nM

O=C1c2cc3c(cc2C(=O)N1CCC1CCN(Cc2ccccn2)CC1)OCO3 [Compound I-36, 6-[2-[1-(2-pyridylmethyl)-4-piperidyl]ethyl]-[1,3]dioxolo[4,5-f]isoindole-5,7-dione]
potency on acetylcholinesterase compared with positive control drug donepezil hydrochloride (acetylcholinesterase): slightly lower potency than the positive control drug | IC50 (acetylcholinesterase; [2]): 161 nM

CC1c2cc3c(cc2C(=O)N1CCC1CCN(Cc2cccc(F)c2)CC1)OCO3 (centres unmarked) [Compound I-11, 6-[2-[1-[(3-fluorophenyl)methyl]-4-piperidyl]ethyl]-5-methyl-5H-[1,3]dioxolo[4,5-f]isoindol-7-one]
potency on acetylcholinesterase compared with positive control drug donepezil hydrochloride (acetylcholinesterase): even lower | IC50 (acetylcholinesterase; [2]): 889 nM

N#Cc1ccccc1CN1CCC(CCN2C(=O)c3cc4c(cc3C23CC3)OCO4)CC1 [Compound I-24, 6-[2-[1-[(2-cyanophenyl)methyl]-4-piperidyl]ethyl]spiro[[1,3]dioxolo[4,5-f]isoindole-7,1′-cyclopropane]-5-one]
potency on acetylcholinesterase compared with positive control drug donepezil hydrochloride (acetylcholinesterase): relative low activity | IC50 (acetylcholinesterase; [2]): > 2000 nM

CC1(C)c2cc3c(cc2C(=O)N1CCC1CCN(Cc2ccc(F)cc2)CC1)OCO3 [Compound I-16, 6-[2-[1-[(4-fluorophenyl)methyl]-4-piperidyl]ethyl]-7,7-dimethyl-[1,3]dioxolo[4,5-f]isoindol-5-one]
potency on acetylcholinesterase compared with positive control drug donepezil hydrochloride (acetylcholinesterase): relative low activity | IC50 (acetylcholinesterase; [2]): > 2000 nM

Cc1ccc(CN2CCC(CCN3C(=O)c4cc5c(cc4C34CC4)OCO5)CC2)[nH]1 [Compound I-40, 6-[2-[1-[(5-methyl-1H-pyrrol-2-yl)methyl]-4-piperidyl]ethyl]spiro[[1,3]dioxolo[4,5-f]isoindole-7,1′-cyclopropane]-5-one]
potency on acetylcholinesterase compared with positive control drug donepezil hydrochloride (acetylcholinesterase): relative low activity | IC50 (acetylcholinesterase; [3]): > 2000 nM

O=C1c2cc3c(cc2CN1CCC1CCN(Cc2ccccc2)CC1)OCO3 [Compound I-5, 6-[2-(1-benzyl-4-piperidyl)ethyl]-5H-[1,3]dioxolo[4,5-f]isoindol-7-one]
IC50 (acetylcholinesterase; [4]): 502 nM | potency on acetylcholinesterase compared with positive control drug donepezil hydrochloride (acetylcholinesterase): even lower

O=C1c2cc3c(cc2C2(CC2)N1CCC1CCN(Cc2ncccn2)CC1)OCO3 [Compound I-32, 6-[2-[1-(pyrimidin-2-ylmethyl)-4-piperidyl]ethyl]spiro[[1,3]dioxolo[4,5-f]isoindole-7,1′-cyclopropane]-5-one]
potency on acetylcholinesterase compared with positive control drug donepezil hydrochloride (acetylcholinesterase): relative low activity | IC50 (acetylcholinesterase; [2]): > 2000 nM

O=C1c2cc3c(cc2C2(CC2)N1CCC1CCN(Cc2ccccc2C(F)(F)F)CC1)OCO3 [Compound I-22, 6-[2-[1-[[2-(trifluoromethyl)phenyl]methyl]-4-piperidyl]ethyl]spiro[[1,3]dioxolo[4,5-f]isoindole-7,1′-cyclopropane]-5-one]
potency on acetylcholinesterase compared with positive control drug donepezil hydrochloride (acetylcholinesterase): relative low activity | IC50 (acetylcholinesterase; [2]): > 2000 nM

O=C1c2cc3c(cc2C2(CC2)N1CCC1CCN(Cc2ccccc2Cl)CC1)OCO3 [Compound I-21, 6-[2-[1-[(2-chlorophenyl)methyl]-4-piperidyl]ethyl]spiro[[1,3]dioxolo[4,5-f]isoindole-7,1′-cyclopropane]-5-one]
potency on acetylcholinesterase compared with positive control drug donepezil hydrochloride (acetylcholinesterase): even lower | IC50 (acetylcholinesterase; [2]): 653 nM

O=C1c2cc3c(cc2C(=O)N1CCC1CCN(Cc2ccccc2F)CC1)OCO3 [Compound I-2, 6-[2-[1-[(2-fluorophenyl)methyl]-4-piperidyl]ethyl]-[1,3]dioxolo[4,5-f]isoindole-5,7-dione]
potency on acetylcholinesterase compared with positive control drug donepezil hydrochloride (acetylcholinesterase): slightly higher potency than the positive control drug; also recorded: comparable inhibition activity on acetylcholinesterase with donepezil hydrochloride | IC50 (acetylcholinesterase; [3]): 80 nM

CC1c2cc3c(cc2C(=O)N1CCC1CCN(Cc2ccc(F)cc2)CC1)OCO3 (centres unmarked) [Compound I-12, 6-[2-[1-[(4-fluorophenyl)methyl]-4-piperidyl]ethyl]-5-methyl-5H-[1,3]dioxolo[4,5-f]isoindol-7-one]
potency on acetylcholinesterase compared with positive control drug donepezil hydrochloride (acetylcholinesterase): relative low activity | IC50 (acetylcholinesterase; [2]): > 2000 nM

O=C1c2cc3c(cc2CN1CCC1CCN(Cc2ccc(F)cc2)CC1)OCO3 [Compound I-8, 6-[2-[1-[(4-fluorophenyl)methyl]-4-piperidyl]ethyl]-5H-[1,3]dioxolo[4,5-f]isoindol-7-one]
potency on acetylcholinesterase compared with positive control drug donepezil hydrochloride (acetylcholinesterase): even lower | IC50 (acetylcholinesterase; [2]): 658 nM

CC1c2cc3c(cc2C(=O)N1CCC1CCN(Cc2ccccc2)CC1)OCO3 (centres unmarked) [Compound I-9, 6-[2-(1-benzyl-4-piperidyl)ethyl]-5-methyl-5H-[1,3]dioxolo[4,5-f]isoindol-7-one]
latent period day 1 ([1]; 5 mg/kg intragastric): 58.9 ± 4.0 s | latent period day 2 ([1]; 5 mg/kg intragastric): 60 ± 0 s | latent period day 3 ([1]; 5 mg/kg intragastric): 51.2 ± 11.0 s | latent period day 4 ([1]; 5 mg/kg intragastric): 53.4 ± 11.8 s | latent period day 5 ([1]; 5 mg/kg intragastric): 51.1 ± 11.5 s | times of crossing platform ([1]; 5 mg/kg intragastric): 1.27 ± 1.44 | latent period day 1 ([1]; 10 mg/kg intragastric): 58.3 ± 6.5 s | latent period day 2 ([1]; 10 mg/kg intragastric): 56.6 ± 9.1 s | latent period day 3 ([1]; 10 mg/kg intragastric): 56.5 ± 6.3 s | latent period day 4 ([1]; 10 mg/kg intragastric): 51.1 ± 11.6 s | latent period day 5 ([1]; 10 mg/kg intragastric): 49.2 ± 16.9 s | times of crossing platform ([1]; 10 mg/kg intragastric): 1.80 ± 1.74

COc1cccc(CN2CCC(CCN3C(=O)c4cc5c(cc4C34CC4)OCO5)CC2)c1 [Compound I-27, 6-[2-[1-[(3-methoxyphenyl)methyl]-4-piperidyl]ethyl]spiro[[1, 3]dioxolo[4,5-f]isoindole-7,1′-cyclopropane]-5-one]
potency on acetylcholinesterase compared with positive control drug donepezil hydrochloride (acetylcholinesterase): relative low activity | IC50 (acetylcholinesterase; [2]): > 2000 nM

COc1ccccc1CN1CCC(CCN2C(=O)c3cc4c(cc3C23CC3)OCO4)CC1 [Compound I-26, 6-[2-[1-[(2-methoxyphenyl)methyl]-4-piperidyl]ethyl]spiro[[1, 3]dioxolo[4,5-f]isoindole-7,1′-cyclopropane]-5-one]
potency on acetylcholinesterase compared with positive control drug donepezil hydrochloride (acetylcholinesterase): relative low activity | IC50 (acetylcholinesterase; [2]): > 2000 nM

O=C1c2cc3c(cc2C2(CC2)N1CCC1CCN(Cc2ccc[nH]2)CC1)OCO3 [Compound I-39, 6-[2-[1-(1H-pyrrol-2-ylmethyl)-4-piperidyl]ethyl]spiro[[1,3]dioxolo[4,5-f]isoindole-7,1′-cyclopropane]-5-one]
potency on acetylcholinesterase compared with positive control drug donepezil hydrochloride (acetylcholinesterase): relative low activity | IC50 (acetylcholinesterase; [3]): > 2000 nM

O=C1c2cc3c(cc2C2(CC2)N1CCC1CCN(Cc2ccncc2)CC1)OCO3 [Compound I-31, 6-[2-[1-(4-pyridylmethyl)-4-piperidyl]ethyl]spiro[[1,3]dioxolo[4,5-f]isoindole-7,1′-cyclopropane]-5-one]
potency on acetylcholinesterase compared with positive control drug donepezil hydrochloride (acetylcholinesterase): relative low activity | IC50 (acetylcholinesterase; [3]): > 2000 nM

O=C1c2cc3c(cc2CN1CCC1CCN(Cc2ccccc2F)CC1)OCO3 [Compound I-6, 6-[2-[1-[(2-fluorophenyl)methyl]-4-piperidyl]ethyl]-5H-[1,3]dioxolo[4,5-f]isoindol-7-one]
potency on acetylcholinesterase compared with positive control drug donepezil hydrochloride (acetylcholinesterase): even lower | IC50 (acetylcholinesterase; [2]): 483 nM

O=C1c2cc3c(cc2C2(CC2)N1CCC1CCN(Cc2cccnc2)CC1)OCO3 [Compound I-30, 6-[2-[1-(3-pyridylmethyl)-4-piperidyl]ethyl]spiro[[1,3]dioxolo[4,5-f]isoindole-7,1′-cyclopropane]-5-one]
potency on acetylcholinesterase compared with positive control drug donepezil hydrochloride (acetylcholinesterase): relative low activity | IC50 (acetylcholinesterase; [2]): > 2000 nM

O=C1c2cc3c(cc2C2(CC2)N1CCC1CCN(Cc2ccc(F)cc2)CC1)OCO3 [Compound I-20, 6-[2-[1-[(4-fluorophenyl)methyl]-4-piperidyl]ethyl]spiro[[1,3]dioxolo[4,5-f]isoindole-7,1′-cyclopropane]-5-one]
potency on acetylcholinesterase compared with positive control drug donepezil hydrochloride (acetylcholinesterase): even lower | IC50 (acetylcholinesterase; [2]): 706 nM

O=C1c2cc3c(cc2C2(CC2)N1CCC1CCN(Cc2ccn[nH]2)CC1)OCO3 [Compound I-41, 6-[2-[1-(1H-pyrazol-5-ylmethyl)-4-piperidyl]ethyl]spiro[[1,3]dioxolo[4,5-f]isoindole-7,1′-cyclopropane]-5-one]
potency on acetylcholinesterase compared with positive control drug donepezil hydrochloride (acetylcholinesterase): even lower | IC50 (acetylcholinesterase; [3]): 990 nM

COc1ccc(CN2CCC(CCN3C(=O)c4cc5c(cc4C34CC4)OCO5)CC2)cc1 [Compound I-28, 6-[2-[1-[(4-methoxyphenyl)methyl]-4-piperidyl]ethyl]spiro[[1, 3]dioxolo[4,5-f]isoindole-7,1′-cyclopropane]-5-one]
potency on acetylcholinesterase compared with positive control drug donepezil hydrochloride (acetylcholinesterase): relative low activity | IC50 (acetylcholinesterase; [3]): > 2000 nM

O=C1c2cc3c(cc2C2(CC2)N1CCC1CCN(Cc2cccnn2)CC1)OCO3 [Compound I-38, 6-[2-[1-(pyridazin-3-ylmethyl)-4-piperidyl]ethyl]spiro[[1,3]dioxolo[4,5-f]isoindole-7,1′-cyclopropane]-5-one]
potency on acetylcholinesterase compared with positive control drug donepezil hydrochloride (acetylcholinesterase): relative low activity | IC50 (acetylcholinesterase; [3]): > 2000 nM

O=C1c2cc3c(cc2C2(CC2)N1CCC1CCN(Cc2c(F)cccc2F)CC1)OCO3 [Compound I-25, 6-[2-[1-[(2,6-difluorophenyl)methyl]-4-piperidyl]ethyl]spiro[[1,3]dioxolo[4,5-f]isoindole-7,1′-cyclopropane]-5-one]
potency on acetylcholinesterase compared with positive control drug donepezil hydrochloride (acetylcholinesterase): slightly lower potency than the positive control drug | IC50 (acetylcholinesterase; [3]): 249 nM

CC1(C)c2cc3c(cc2C(=O)N1CCC1CCN(Cc2ccccc2)CC1)OCO3 [Compound I-13, 6-[2-(1-benzyl-4-piperidyl)ethyl]-7,7-dimethyl-[1,3]dioxolo[4,5-f]isoindol-5-one]
IC50 (acetylcholinesterase; [4]): > 2000 nM | potency on acetylcholinesterase compared with positive control drug donepezil hydrochloride (acetylcholinesterase): relative low activity

— patent publication US9346818B2 (priority 2012, dated 2016)
